Test results: PubChem BioAssay AID1963965 (Molecular Pharmacology Branch, DTP, NCI, 2024)
pIC50: −log10 of the molar value.

Tested on: 996289-038-R-J1-PDC spheroid viability
Assay: Anticancer human tumor 996289-038-R-J1-PDC patient-derived colon adenocarcinoma cell line growth inhibition [PI3K]
Details: spheroids with HUVEC and MSC; for pIC50: curve of first compound; for viability, T/C: stronger effect = lower value
Outline: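 Tumor cells grown as multi-cell spheroids with HUVEC endothelial cells and MSC fibroblast-like stroma were treated with targeted agents combined with inavolisib, alpelisib, duvelisib or copanlisib. Doses fell in half-log steps from near clinical Cmax, else from 10 microM. Viability was measured.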

[1] = second compound 0.0316 µM, first compound 0.0316 µM
[2] = second compound 0.0316 µM, first compound 0.1 µM
[3] = second compound 0.1 µM, first compound 0.0316 µM
[4] = second compound 0.1 µM, first compound 0.1 µM
[5] = second compound 0.316 µM, first compound 0.0316 µM
[6] = second compound 0.316 µM, first compound 0.1 µM
[7] = second compound 1 µM, first compound 0.0316 µM
[8] = second compound 1 µM, first compound 0.1 µM
[9] = second compound 3.16 µM, first compound 0.0316 µM
[10] = second compound 3.16 µM, first compound 0.1 µM
[11] = second compound 10 µM, first compound 0.0316 µM
[12] = second compound 10 µM, first compound 0.1 µM
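Also: spheroids exposed to compounds for seven days before viability read.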
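For viability, T/C in this document: luminescence used as a proxy for viable cell amount; percent viability relative to DMSO vehicle control as 100%.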

With `C[C@@H](NC(=O)c1ncnc(N)c1Cl)c1ncc(C(=O)Nc2cc(C(F)(F)F)c(Cl)cn2)s1` + CC(Nc1ncnc2nc[nH]c12)c1cc2cccc(Cl)c2c(=O)n1-c1ccccc1 as the molecule, how does the pIC50 (second compound 0.0316 µM) read?
The pIC50 was under 5.00.

What about the pIC50 (second compound 0.1 µM) of the same molecule?
The pIC50 was under 5.00.

What about the pIC50 (second compound 0.316 µM) of the same molecule?
Its pIC50 is under 5.00.

What about the pIC50 (second compound 1 µM) of the same molecule?
Its pIC50 is under 5.00.

And the pIC50 (second compound 3.16 µM)?
Its pIC50 is under 5.00.

What about the pIC50 (second compound 10 µM) of the same molecule?
Its pIC50 is under 5.00.

And the viability, T/C [1]?
Its viability, T/C is 102%.

And the viability, T/C [2]?
Its viability, T/C is 102%.

And the viability, T/C (second compound 0.0316 µM, first compound 0.316 µM)?
Its viability, T/C is 98.6%.

What about the viability, T/C (second compound 0.0316 µM, first compound 1 µM) of the same molecule?
The viability, T/C was 128%.

What about the viability, T/C (second compound 0.0316 µM, first compound 3.16 µM) of the same molecule?
The viability, T/C was 137%.

What about the viability, T/C (second compound 0.0316 µM, first compound 10 µM) of the same molecule?
Its viability, T/C is 126%.

What about the viability, T/C [3] of the same molecule?
The viability, T/C was 115%.

What about the viability, T/C [4] of the same molecule?
Its viability, T/C is 85.2%.

And the viability, T/C (second compound 0.1 µM, first compound 0.316 µM)?
The viability, T/C was 125%.

And the viability, T/C (second compound 0.1 µM, first compound 1 µM)?
The viability, T/C was 120%.

And the viability, T/C (second compound 0.1 µM, first compound 3.16 µM)?
The viability, T/C was 124%.

What about the viability, T/C (second compound 0.1 µM, first compound 10 µM) of the same molecule?
Its viability, T/C is 111%.

And the viability, T/C [5]?
The viability, T/C was 105%.

What about the viability, T/C [6] of the same molecule?
The viability, T/C was 103%.

What about the viability, T/C (second compound 0.316 µM, first compound 0.316 µM) of the same molecule?
The viability, T/C was 116%.

And the viability, T/C (second compound 0.316 µM, first compound 1 µM)?
The viability, T/C was 108%.

And the viability, T/C (second compound 0.316 µM, first compound 3.16 µM)?
Its viability, T/C is 142%.

And the viability, T/C (second compound 0.316 µM, first compound 10 µM)?
Its viability, T/C is 130%.

What about the viability, T/C [7] of the same molecule?
Its viability, T/C is 105%.

And the viability, T/C [8]?
The viability, T/C was 108%.

What about the viability, T/C (second compound 1 µM, first compound 0.316 µM) of the same molecule?
Its viability, T/C is 95.8%.

What about the viability, T/C (second compound 1 µM, first compound 1 µM) of the same molecule?
Its viability, T/C is 108%.

And the viability, T/C (second compound 1 µM, first compound 3.16 µM)?
The viability, T/C was 135%.

And the viability, T/C (second compound 1 µM, first compound 10 µM)?
Its viability, T/C is 120%.

What about the viability, T/C [9] of the same molecule?
The viability, T/C was 83.3%.

And the viability, T/C [10]?
The viability, T/C was 93.9%.

And the viability, T/C (second compound 3.16 µM, first compound 0.316 µM)?
The viability, T/C was 115%.

And the viability, T/C (second compound 3.16 µM, first compound 1 µM)?
Its viability, T/C is 119%.

What about the viability, T/C (second compound 3.16 µM, first compound 3.16 µM) of the same molecule?
Its viability, T/C is 140%.

And the viability, T/C (second compound 3.16 µM, first compound 10 µM)?
Its viability, T/C is 116%.

What about the viability, T/C [11] of the same molecule?
Its viability, T/C is 93.1%.

And the viability, T/C [12]?
The viability, T/C was 102%.

What about the viability, T/C (second compound 10 µM, first compound 0.316 µM) of the same molecule?
The viability, T/C was 102%.

And the viability, T/C (second compound 10 µM, first compound 1 µM)?
Its viability, T/C is 98.1%.

What about the viability, T/C (second compound 10 µM, first compound 3.16 µM) of the same molecule?
The viability, T/C was 122%.

What about the viability, T/C (second compound 10 µM, first compound 10 µM) of the same molecule?
Its viability, T/C is 101%.

What does the source list for `Cn1ncnc1[C@H]1c2n[nH]c(=O)c3cc(F)cc(c23)N[C@@H]1c1ccc(F)cc1` + CC(Nc1ncnc2nc[nH]c12)c1cc2cccc(Cl)c2c(=O)n1-c1ccccc1?
pIC50 (second compound 0.0316 µM): < 7.00; pIC50 (second compound 0.1 µM): < 7.00; pIC50 (second compound 0.316 µM): < 7.00; pIC50 (second compound 1 µM): < 7.00; pIC50 (second compound 3.16 µM): < 7.00; pIC50 (second compound 10 µM): < 7.00; viability, T/C (second compound 0.0316 µM, first compound 0.000316 µM): 97.1%; viability, T/C (second compound 0.0316 µM, first compound 0.001 µM): 99.7%; viability, T/C (second compound 0.0316 µM, first compound 0.00316 µM): 107%; viability, T/C (second compound 0.0316 µM, first compound 0.01 µM): 104%; viability, T/C [1]: 111%; viability, T/C [2]: 94.3%; viability, T/C (second compound 0.1 µM, first compound 0.000316 µM): 107%; viability, T/C (second compound 0.1 µM, first compound 0.001 µM): 98.4%; viability, T/C (second compound 0.1 µM, first compound 0.00316 µM): 96.1%; viability, T/C (second compound 0.1 µM, first compound 0.01 µM): 96.3%; viability, T/C [3]: 122%; viability, T/C [4]: 96.4%; viability, T/C (second compound 0.316 µM, first compound 0.000316 µM): 93.9%; viability, T/C (second compound 0.316 µM, first compound 0.001 µM): 102%; viability, T/C (second compound 0.316 µM, first compound 0.00316 µM): 110%; viability, T/C (second compound 0.316 µM, first compound 0.01 µM): 100%; viability, T/C [5]: 109%; viability, T/C [6]: 89.8%; viability, T/C (second compound 1 µM, first compound 0.000316 µM): 95.1%; viability, T/C (second compound 1 µM, first compound 0.001 µM): 94.3%; viability, T/C (second compound 1 µM, first compound 0.00316 µM): 103%; viability, T/C (second compound 1 µM, first compound 0.01 µM): 96.3%; viability, T/C [7]: 103%; viability, T/C [8]: 95.2%; viability, T/C (second compound 3.16 µM, first compound 0.000316 µM): 90.4%; viability, T/C (second compound 3.16 µM, first compound 0.001 µM): 109%; viability, T/C (second compound 3.16 µM, first compound 0.00316 µM): 94.5%; viability, T/C (second compound 3.16 µM, first compound 0.01 µM): 96.3%; viability, T/C [9]: 95.4%; viability, T/C [10]: 94.8%; viability, T/C (second compound 10 µM, first compound 0.000316 µM): 90%; viability, T/C (second compound 10 µM, first compound 0.001 µM): 90.5%; viability, T/C (second compound 10 µM, first compound 0.00316 µM): 96.8%; viability, T/C (second compound 10 µM, first compound 0.01 µM): 81.5%; viability, T/C [11]: 94.6%; viability, T/C [12]: 77.8%
